The structures appear in SMILES notation. A value given as a limit tells only on which side of the number the result lay.

For 30 compounds, IC50 results are on record in US9586951B2 (FUJIFILM Corporation, priority 2013, dated 2017).

This assay deals with T1, ATM (Homo sapiens, UniProt Q13315).
T1 construct: detecting phosphorylation of Chk2 in a human non-small cell lung cancer cell line NCI-H460 (ATCC company); host or cells: NCI-H460 human non-small cell lung cancer cells
T1 sequence (Q13315 whole entry): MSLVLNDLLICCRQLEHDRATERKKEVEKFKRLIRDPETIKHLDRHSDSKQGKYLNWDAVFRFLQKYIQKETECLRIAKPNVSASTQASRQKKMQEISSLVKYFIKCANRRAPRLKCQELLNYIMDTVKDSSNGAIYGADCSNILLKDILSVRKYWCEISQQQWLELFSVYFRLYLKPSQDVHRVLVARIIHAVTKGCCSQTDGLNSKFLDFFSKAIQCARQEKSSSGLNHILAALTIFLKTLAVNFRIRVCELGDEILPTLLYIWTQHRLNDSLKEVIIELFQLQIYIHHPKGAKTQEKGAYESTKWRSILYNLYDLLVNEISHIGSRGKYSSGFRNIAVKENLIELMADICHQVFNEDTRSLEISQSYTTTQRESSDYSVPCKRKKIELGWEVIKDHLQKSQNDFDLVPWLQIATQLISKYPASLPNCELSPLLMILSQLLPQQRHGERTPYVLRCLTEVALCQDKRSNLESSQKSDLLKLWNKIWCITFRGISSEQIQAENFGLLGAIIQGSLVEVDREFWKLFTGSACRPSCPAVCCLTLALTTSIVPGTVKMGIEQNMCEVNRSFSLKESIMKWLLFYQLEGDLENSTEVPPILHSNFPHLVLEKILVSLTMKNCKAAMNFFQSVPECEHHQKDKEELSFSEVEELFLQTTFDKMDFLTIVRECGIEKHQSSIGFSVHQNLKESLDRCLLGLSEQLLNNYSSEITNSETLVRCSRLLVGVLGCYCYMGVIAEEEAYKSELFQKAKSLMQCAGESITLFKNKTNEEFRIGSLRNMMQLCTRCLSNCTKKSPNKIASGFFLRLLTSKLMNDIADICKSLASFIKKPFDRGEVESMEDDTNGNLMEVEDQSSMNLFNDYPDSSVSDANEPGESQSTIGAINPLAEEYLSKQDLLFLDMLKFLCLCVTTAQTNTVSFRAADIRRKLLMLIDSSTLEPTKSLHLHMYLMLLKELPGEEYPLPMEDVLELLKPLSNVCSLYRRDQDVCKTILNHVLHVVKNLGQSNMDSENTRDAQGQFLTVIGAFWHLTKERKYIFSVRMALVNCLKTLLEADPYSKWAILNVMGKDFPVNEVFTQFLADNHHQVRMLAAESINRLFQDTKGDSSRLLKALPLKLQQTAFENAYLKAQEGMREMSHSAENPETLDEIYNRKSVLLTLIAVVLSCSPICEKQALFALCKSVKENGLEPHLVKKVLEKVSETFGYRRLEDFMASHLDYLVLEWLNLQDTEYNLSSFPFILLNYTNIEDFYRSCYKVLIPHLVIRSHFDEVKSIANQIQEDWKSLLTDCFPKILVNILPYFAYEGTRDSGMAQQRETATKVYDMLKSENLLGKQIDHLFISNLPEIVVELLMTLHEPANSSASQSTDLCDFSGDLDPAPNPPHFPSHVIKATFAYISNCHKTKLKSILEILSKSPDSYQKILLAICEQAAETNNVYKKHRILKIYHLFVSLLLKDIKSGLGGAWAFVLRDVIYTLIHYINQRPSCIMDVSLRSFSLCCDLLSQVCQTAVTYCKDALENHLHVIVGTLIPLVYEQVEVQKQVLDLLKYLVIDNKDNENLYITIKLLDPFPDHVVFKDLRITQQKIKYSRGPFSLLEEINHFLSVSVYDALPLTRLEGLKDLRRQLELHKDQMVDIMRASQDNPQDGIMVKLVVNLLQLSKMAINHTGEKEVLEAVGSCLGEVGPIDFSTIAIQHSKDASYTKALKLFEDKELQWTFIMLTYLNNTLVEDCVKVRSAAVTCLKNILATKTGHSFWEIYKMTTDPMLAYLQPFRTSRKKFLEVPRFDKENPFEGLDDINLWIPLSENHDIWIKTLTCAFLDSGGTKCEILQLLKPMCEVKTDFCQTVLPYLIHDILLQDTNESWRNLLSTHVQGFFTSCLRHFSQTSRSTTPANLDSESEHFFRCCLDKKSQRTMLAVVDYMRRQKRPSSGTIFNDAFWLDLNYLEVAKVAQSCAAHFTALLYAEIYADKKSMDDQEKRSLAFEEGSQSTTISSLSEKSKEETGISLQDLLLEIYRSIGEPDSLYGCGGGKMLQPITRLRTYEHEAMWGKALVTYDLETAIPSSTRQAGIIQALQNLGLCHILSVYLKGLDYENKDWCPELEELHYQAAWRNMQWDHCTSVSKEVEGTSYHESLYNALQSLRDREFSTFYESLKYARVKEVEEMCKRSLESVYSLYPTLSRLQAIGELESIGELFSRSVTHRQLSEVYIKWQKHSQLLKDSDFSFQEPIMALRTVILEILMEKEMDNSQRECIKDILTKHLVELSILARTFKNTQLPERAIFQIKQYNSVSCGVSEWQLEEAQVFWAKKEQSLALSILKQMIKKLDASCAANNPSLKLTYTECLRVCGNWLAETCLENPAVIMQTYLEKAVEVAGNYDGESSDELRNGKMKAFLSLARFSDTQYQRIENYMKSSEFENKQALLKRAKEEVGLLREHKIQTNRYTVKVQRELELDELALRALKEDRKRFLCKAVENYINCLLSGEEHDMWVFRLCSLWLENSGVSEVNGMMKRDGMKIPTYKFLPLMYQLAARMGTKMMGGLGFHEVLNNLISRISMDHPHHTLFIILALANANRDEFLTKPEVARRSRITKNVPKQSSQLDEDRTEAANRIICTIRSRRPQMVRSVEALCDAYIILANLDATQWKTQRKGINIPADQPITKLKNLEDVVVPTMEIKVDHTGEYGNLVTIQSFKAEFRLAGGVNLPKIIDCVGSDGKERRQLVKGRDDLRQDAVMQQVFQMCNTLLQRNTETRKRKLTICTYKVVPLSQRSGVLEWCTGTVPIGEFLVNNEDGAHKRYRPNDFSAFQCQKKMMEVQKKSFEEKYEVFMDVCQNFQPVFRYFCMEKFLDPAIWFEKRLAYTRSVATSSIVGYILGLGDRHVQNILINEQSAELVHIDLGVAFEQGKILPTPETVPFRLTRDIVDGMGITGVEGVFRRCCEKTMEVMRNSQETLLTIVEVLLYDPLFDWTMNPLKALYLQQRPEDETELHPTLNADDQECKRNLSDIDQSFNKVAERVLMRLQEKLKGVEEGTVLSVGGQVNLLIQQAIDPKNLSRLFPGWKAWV
Put plainly: ATM inhibition test (phosphorylation of Chk2 generated by ionizing radiation, AlphaScreen SureFire). It counts as cell-based. To be noted: phosphorylated Chk2 in NCI-H460 cells, ionizing radiation 8Gy, 1 hour after test compound treatment; read-out: ATM inhibitory activity. The method, then:
ATM inhibitory effects of a test compound were measured by detecting phosphorylation of Chk2 in a human non-small cell lung cancer cell line NCI-H460 (ATCC company). The level of phosphorylated Chk2 generated by an ionizing radiation was measured using AlphaScreen SureFire (TGR Biosciences).
The cells were seeded by 40000 cells per well in 96-well CellBIND® plates (Corning International Inc.), and incubated at 37° C. overnight in 5% CO2. […] 1 hour after a test compound treatment, half of the plates were irradiated with ionizing radiation 8Gy (Faxitron Bioptics, LLC, RX-650 type). The plates irradiated with ionizing radiation and the plates not being irradiated with ionizing radiation were incubated at 37° C. for 1 hour in 5% CO2. […] Subsequent operations were performed according to the instruction book of AlphaScreen SureFire. […] The inhibition ratio was calculated by the following equation. Inhibition ratio (%)=((signal of drug untreated wells in the plates irradiated with ionizing radiation−signal of drug treated wells in the plates irradiated with ionizing radiation)/(signal of drug untreated wells in the plates irradiated with ionizing radiation−signal of drug untreated wells in the plates not being irradiated with ionizing radiation))×100
On to `COCC(=O)N1CCC(Nc2ccc3c(c2)Sc2cccc(-c4cc(N5CCOCC5)cc(=O)[nH]4)c2S3)CC1` [Example 1-28, 6-(7-((1-(2-methoxyacetyl)piperidin-4-yl)amino)thianthren-1-yl)-4-morpholinopyridin-2(1H)-one], for which the IC50 lay in the range of 500 to 2000 nM.
For `O=c1cc(N2CCOCC2)cc(-c2cccc3c2Oc2ccc(NCc4cnc5c(c4)OCCO5)cc2C3)[nH]1` [Example 2-2-29, 6-(7-(((2,3-Dihydro-[1,4]dioxino[2,3-b]pyridin-7-yl)methyl)amino)-9H-xanthen-4-yl)-4-morpholino pyridin-2 (1H)-one] the value was below 100 nM; for `Nc1ncccc1CNc1ccc2c(c1)Sc1cccc(-c3cc(N4CCOCC4)cc(=O)[nH]3)c1O2` [Example 4-8-20, 6-(8-(((2-Aminopyridin-3-yl)methyl)amino)phenoxathiin-4-yl)-4-morpholino pyridin-2(1H)-one], 500 to 2000 nM.
With `Cc1nccnc1CNc1ccc2c(c1)Sc1cccc(-c3cc(N4CCOCC4)cc(=O)[nH]3)c1S2` [Example 1-12-61, 6-(7-(((3-Methylpyrazin-2-yl)methyl)amino)thianthren-1-yl)-4-morpholino pyridin-2 (1H)-one], the IC50 is 100 to 500 nM.
Then `CCNc1cccc(CNc2ccc3c(c2)Cc2cccc(-c4cc(N5CCOCC5)cc(=O)[nH]4)c2O3)n1` [Example 2-6-2, 6-(7-(((6-(Ethylamino)pyridin-2-yl)methyl)amino)-9H-xanthen-4-yl)-4-morpholinopyridin-2(1H)-one], with 100 to 500 nM; and `CN(C)c1ccc(CN2CCC(Nc3ccc4c(c3)Cc3cccc(-c5cc(N6CCOCC6)cc(=O)[nH]5)c3O4)CC2)cn1` [Example 2-28-9, 6-(7-((1-((6-(Dimethylamino)pyridin-3-yl)methyl)piperidin-4-yl)amino)-9H-xanthen-4-yl)-4-morpholino pyridin-2(1H)-one], with 100 to 500 nM.
For the compound `CCOc1ccc(CNc2ccc3c(c2)Cc2cccc(-c4cc(N5CCOCC5)cc(=O)[nH]4)c2O3)cn1` [Example 2-2-23, 6-(7-(((6-Ethoxypyridin-3-yl)methyl)amino)-9H-xanthen-4-yl)-4-morpholino pyridin-2(1H)-one], the IC50 is 100 to 500 nM.
Then `Cc1csc(CNc2ccc3c(c2)Cc2cccc(-c4cc(N5CCOCC5)cc(=O)[nH]4)c2O3)c1` [Example 2-14-41, 6-(7-(((4-Methylthiophen-2-yl)methyl)amino)-9H-xanthen-4-yl)-4-morpholino pyridin-2(1H)-one], with 100 to 500 nM; and `COc1ncc(CNc2ccc3c(c2)Cc2ccnc(-c4cc(N5CCOCC5)cc(=O)[nH]4)c2O3)cn1` [Example 2-42-1, 6-(7-(((2-Methoxypyrimidin-5-yl)methyl)amino)-5H-chromeno[2,3-c]pyridin-1-yl)-4-morpholinopyridin-2(1H)-one], with 500 to 2000 nM.
Then `O=c1cc(N2CCOCC2)cc(-c2cccc3c2Sc2ccc(NC(CO)CN4CCOCC4)cc2S3)[nH]1` (stereo not drawn) [Example 1-37-2, 6-(7-((1-Hydroxy-3-morpholinopropan-2-yl)amino)thianthren-1-yl)-4-morpholino pyridin-2(1H)-one], with 100 to 500 nM.
On to `Cc1cnc(C(COCCN(C)C)Nc2ccc3c(c2)Sc2cccc(-c4cc(N5CCOCC5)cc(=O)[nH]4)c2S3)nc1` (stereo not drawn) [Example 1-12-104, 6-(7-((2-(2-(Dimethylamino)ethoxy)-1-(5-methylpyrimidin-2-yl)ethyl)amino)thianthren-1-yl)-4-morpholino pyridin-2(1H)-one], for which the IC50 lay within 100 to 500 nM.
In the case of `CCCC(Nc1ccc2c(c1)Sc1cccc(-c3cc(N4CCOCC4)cc(=O)[nH]3)c1S2)c1ccc(C)cn1` (stereo not drawn) [Example 1-12-119, 6-(7-((1-(5-Methylpyridin-2-yl)butyl)amino)thianthren-1-yl)-4-morpholino pyridin-2 (1H)-one], the IC50 lay in the range of 100 to 500 nM.
For `CN(C)c1nccc(CN2CCC(Nc3ccc4c(c3)Cc3cccc(-c5cc(N6CCOCC6)cc(=O)[nH]5)c3O4)CC2)n1` [Example 2-28-16, 6-(7-((1-((2-(Dimethylamino)pyrimidin-4-yl)methyl)piperidin-4-yl)amino)-9H-xanthen-4-yl)-4-morpholino pyridin-2(1H)-one] the value was 100 to 500 nM; for `O=c1cc(N2CCOCC2)cc(-c2cccc3c2Oc2ccc(NC4CCCN(CCc5ccccc5)C4)cc2S3)[nH]1` (stereo not drawn) [Example 4-6-3], 100 to 500 nM; for `COc1ccncc1CN1CCC(Nc2ccc3c(c2)Sc2cccc(-c4cc(N5CCOCC5)cc(=O)[nH]4)c2S3)CC1` [Example 1-45, 6-(7-((1-((4-Methoxypyridin-3-yl)methyl)piperidin-4-yl)amino)thianthren-1-yl)-4-morpholinopyridin-2(1H)-one], 100 to 500 nM.
For `O=c1cc(N2CCOCC2)cc(-c2cccc3c2Oc2ccc(NC4CCN(Cc5ccccc5)CC4)cc2C3)[nH]1` [Example 2-28-24, 6-(7-((1-Benzylpiperidin-4-yl)amino)-9H-xanthen-4-yl)-4-morpholino pyridin-2 (1H)-one] the value was 100 to 500 nM; for `CC(Nc1ccc2c(c1)Cc1cccc(-c3cc(N4CCOCC4)cc(=O)[nH]3)c1O2)c1cccs1` (stereo not drawn) [Example 2-14-44, 4-Morpholino-6-(7-((1-(thiophen-2-yl)ethyl)amino)-9H-xanthen-4-yl) pyridin-2(1H)-one], 100 to 500 nM; for `O=c1cc(N2CCOCC2)cc(-c2cccc3c2Sc2ccccc2S3)[nH]1` [Example 1-53, 4-morpholino-6-(thianthren-1-yl)pyridin-2(1H)-one], 500 to 2000 nM.
Then `O=c1cc(N2CCOCC2)cc(-c2cccc3c2Oc2ccc(NCc4cccnc4)cc2C3)[nH]1` [Example 2-3-1, 4-Morpholino-6-(7-((pyridin-3-ylmethyl)amino)-9H-xanthen-4-yl)pyridin-2(1H)-one], with 100 to 500 nM.
As to `Cc1nccnc1CNc1ccc2c(c1)Cc1cccc(-c3cc(N4CCOCC4)cc(=O)[nH]3)c1O2` [Example 2-14-75, 6-(7-(((3-Methylpyrazin-2-yl)methyl)amino)-9H-xanthen-4-yl)-4-morpholino pyridin-2(1H)-one], the IC50 fell in the range of 100 to 500 nM.
For `CC(C)(C)OC(=O)N1CCC(Nc2ccc3c(c2)Cc2cccc(-c4cc(N5CCOCC5)cc(=O)[nH]4)c2O3)C(F)C1` (stereo not drawn) [Example 2-14-1, tert-Butyl 3-fluoro-4-((5-(4-morpholino-6-oxo-1,6-dihydropyridin-2-yl)-9H-xanthen-2-yl)amino) piperidine-1-carboxylate] the value was 100 to 500 nM; for `O=c1cc(N2CCOCC2)cc(-c2cccc3c2Oc2ccc(NCc4ccccn4)cc2S3)[nH]1` [Example 4-4-24, 4-Morpholino-6-(8-((pyridin-2-ylmethyl)amino)phenoxathiin-4-yl) pyridin-2(1H)-one], 100 to 500 nM; for `CN1CCOc2cc(CNc3ccc4c(c3)Cc3cccc(-c5cc(N6CCOCC6)cc(=O)[nH]5)c3O4)cnc21` [Example 2-2-5, 6-(7-(((4-Methyl-3,4-dihydro-2H-pyrido[3,2-b] [1,4]oxazin-7-yl)methyl)amino)-9H-xanthen-4-yl)-4-morpholino pyridin-2 (1H)-one], 100 to 500 nM.
Then `Cc1ccc(C(CC(C)C)Nc2ccc3c(c2)Sc2cccc(-c4cc(N5CCOCC5)cc(=O)[nH]4)c2S3)nc1` (stereo not drawn) [Example 1-12-120, 6-(7-((3-Methyl-1-(5-methylpyridin-2-yl)butyl)amino)thianthren-1-yl)-4-morpholino pyridin-2(1H)-one], with 100 to 500 nM; and `O=c1cc(N2CCOCC2)cc(-c2ccc(F)c3c2Oc2ccc(NCc4cccc(Cl)n4)cc2C3)[nH]1` [Example 2-44-1, 6-(7-(((6-Chloropyridin-2-yl)methyl)amino)-1-fluoro-9H-xanthen-4-yl)-4-morpholinopyridin-2(1H)-one], with 100 to 500 nM.
For `N#Cc1cccc(CNc2ccc3c(c2)Cc2ccnc(-c4cc(N5CCOCC5)cc(=O)[nH]4)c2O3)n1` [Example 2-41-15, 6-(((1-(4-Morpholino-6-oxo-1,6-dihydropyridin-2-yl)-5H-chromeno[2,3-c]pyridin-7-yl)amino)methyl)picolinonitrile] the value was 100 to 500 nM; for `O=c1cc(N2CCOCC2)cc(-c2cccc3c2Sc2ccc(NCC4CCN(Cc5cccnc5)CC4)cc2S3)[nH]1` [Example 1-11, 4-morpholino-6-(7-(((1-(pyridin-3-ylmethyl)piperidin-4-yl)methyl)amino)thianthren-1-yl)pyridin-2(1H)-one], 100 to 500 nM; for `CC[C@@H](C(C)Nc1ccc2c(c1)Sc1cccc(-c3cc(N4CCOCC4)cc(=O)[nH]3)c1S2)N1CCOCC1` (stereo partly drawn) [Example 1-21-3, 4-Morpholino-6-(7-(((3S)-3-morpholinopentan-2-yl)amino)thianthren-1-yl) pyridin-2(1H)-one], 100 to 500 nM.
With `Cc1ccnc(C(CO)Nc2ccc3c(c2)Cc2cccc(-c4cc(N5CCOCC5)cc(=O)[nH]4)c2O3)c1` (single isomer, unassigned) [Example 2-14-91, 6-(7-((2-hydroxy-1-(4-methylpyridin-2-yl)ethyl)amino)-9H-xanthen-4-yl)-4-morpholinopyridin-2(1H)-one], the IC50 fell in the range of 100 to 500 nM.
As to `CNCCC(Nc1ccc2c(c1)Sc1cccc(-c3cc(N4CCOCC4)cc(=O)[nH]3)c1S2)c1cccc(C)n1` (stereo not drawn) [Example 1-20-12, 6-(7-((3-(Methylamino)-1 (6-methyl pyridin-2-yl)propyl)amino)thianthren-1-yl)-4-morpholino pyridin-2 (1H)-one], the IC50 is 100 to 500 nM.
